Assay [1] concerns HIF target genes in Hep3B cells. The assay can be described thus: RT-qPCR of endogenous HIF target gene expression in Hep3B cells. It is filed as cell-based, human. From the text: Based on this hit, we synthesized analogs in which either halogen substitutions to the indole groups were altered or the central thiazole was replaced by imidazole, isoxazole, oxadiazole, oxazole, pyrazinone, pyridazine, pyrazine, pyrazole, pyridine, thiadiazole, triazine, or triazole. […] We focused on analyzing the effect of the bis-bromoindole thiazole 32-134D and the bis-indole thiadiazole 33-063 on endogenous HIF target gene expression in Hep3B cells. […] For comparison, we tested the effect of PT2385, which inhibited EPO, NDRG1, ANGPTL4, and VEGFA expression but had no effect on CA9, which is consistent with its HIF-2–selective mechanism of action ([44]). None of the compounds had any effect on RPL13A expression, which is neither induced by hypoxia nor regulated by HIFs (Supplemental Figure 2D).
Human Hep3B and mouse Hepa1-6 cells were purchased from ATCC and grown in high-glucose (4.5 mg/mL) Dulbecco’s modified Eagle’s medium supplemented with 10% (vol/vol) fetal bovine serum and 1% penicillin/streptomycin at 37°C in a 5% CO2/95% air incubator (Supplemental Table 6). Human cell line identity was authenticated by analysis of short tandem repeats, and all cell lines were maintained mycoplasma free, using PCR-based assays conducted at the Johns Hopkins University Genetic Resources Core Facility (JHU GRCF). Cells were subjected to hypoxia in a controlled atmosphere chamber (PLAS Labs) with ambient gas mixture containing 1% O2 and 5% CO2.
(§1) RNA was extracted using TRIzol Reagent. Quantitative real-time PCR was conducted using SYBR Green PCR Master Mix and reactions were run using a Bio-Rad thermal cycler. Primer sequences and reagent sources are listed in Supplemental Table 5. The mRNA expression of target genes was normalized to the expression of 18S rRNA and the fold change (FC) was calculated based on the threshold cycle (Ct) as FC = 2^–Δ(ΔCt), where ΔCt = Cttarget gene – Ct18S rRNA and Δ(ΔCt) = ΔCttreatment – ΔCtcontrol. For RNA-seq, total RNA was isolated and treated with DNase (Qiagen). The JHU GRCF High-Throughput Sequencing facility prepared libraries and performed RNA-seq. The RNA-seq data were processed and interpreted using Genialis Expressions software (https://www.genialis.com/expressions/). An automated data analysis pipeline run in the Genialis platform consisted of the following: Sequence quality checks were performed on raw and trimmed reads with FastQC. Bbduk was used to trim adapters and filter out poor quality reads. Trimmed reads were then mapped to the STAR index (ENSEMBL 100) reference genome using the STAR ([93]) aligner. Gene expression levels were quantified with featureCounts ([94]), and differential gene expression analyses were performed with DESeq2 ([95]). […] Differential expression was determined with an FDR of less than 0.05 and mRNA FC of greater than 1.5 to identify hypoxia-induced genes and genes inhibited by 32-134D. Data used in this study have been deposited in the NCBI Gene Expression Omnibus database (GEO GSE195997).
Supplemental Figure 2. Effect of 32-134D on gene expression in Hep3B cells. (A-D) Hep3B cells were exposed to 20% O2 in the presence of vehicle (first bar; no fill) or 1% O2 in the presence of: vehicle (blue bar) or the indicated concentration of 32-134D (bars with red fill) or 33-063 (bars with green fill), or PT2385 (bars with brown fill) for 24 hours and the indicated mRNAs were quantified by reverse transcription and quantitative real-time PCR (qPCR). Data are presented as mean + SEM (n = 3). *p < 0.05 vs white; **p < 0.01 vs blue (ANOVA with Bonferroni post-test). […]
(G-H) Analysis of HIF-1a (G) and HIF-2a (H) […]
mRNA expression in Hep3B cells exposed to vehicle or 32-134D at 20% or 1% O2 for 24
(In general: Real-time PCR tracks product formation cycle by cycle.)

Assay [2] has as its system Hepa1-6 mouse HCC cells. The assay can be described thus: RT-qPCR of hypoxia-induced gene expression in Hepa1-6 cells. It is filed as cell-based. The note with it: Hepa1-6, 1% O2, 24 hours. The protocol:
Next, we analyzed Hepa1-6, which is a mouse HCC cell line. […] CXCL1, IL-6, and IL-10 were not induced by hypoxia, whereas hypoxia-induced IL-22 expression was inhibited by 32-134D (P < 0.05; Figure 3C).
Figure 3 Effect of 32-134D treatment on hypoxia-induced gene expression in Hepa1-6 cells. (A–C) Cells were exposed to 20% O2 and vehicle (white bars), 1% O2 and vehicle (blue bars), or 1% O2 and 32-134D (red bars) for 24 hours and mRNAs were quantified by RT-qPCR and normalized to white (mean ± SEM, n = 4). *P < 0.05 versus white; ^#P < 0.05 versus blue (ANOVA with Bonferroni’s post hoc test).
as §1
Supplemental Figure 7. Effect of 32-134D on gene expression in Hepa1-6 cells. Cells were exposed to 20% O2 and vehicle (white bar) or 1% O2 and vehicle (blue bar), 2.5-10 […]
for 24 hours and mRNAs were quantified by RT-qPCR and normalized to white (mean + SEM, n = 4). *p < 0.05 vs white; #p < 0.05 vs blue (ANOVA with Bonferroni post-test).
(1 picture or pasted object on this page, not shown here)

For `Brc1ccc2c(-c3csc(-c4c[nH]c5c(Br)cccc45)n3)c[nH]c2c1` [Compound 32-134D], in assay [1] (Hep3B cells, 1% O2, 24 hours), the “hypoxia-induced ANGPTL4, VEGFA, NDRG1 and EPO mRNA expression” value is “significantly inhibited”; the “hypoxia-induced CA9 mRNA expression (activated by HIF-1 only)” value is “significantly inhibited”. The “HIF-1α or HIF-2α mRNA expression” value in assay [1] (Hep3B, 24 hours) is “no effect”. Moreover, in assay [2], the “RPL13A mRNA expression” value is on record as “no effect” and the “hypoxic induction of PDL1 mRNA” value is reported as “induced in vehicle-treated but not in 32-134D–treated cells”. For the same compound, in assay [2] (2.5-10 µM), the “hypoxia-induced ANGPTL4, EPO, PGF, and VEGFA mRNA expression” value is listed as “significant dose-dependent inhibition”. Also, in assay [2] (P < 0.05), the “hypoxia-induced IL-22 expression” value was “inhibited”; the “hypoxia-induced expression of SLC2A1, LDHA, ENTPD1, and CA9 mRNA” value is listed as “inhibited”; the “hypoxic induction of B7H4 and TIM3 mRNA” value is recorded as “hypoxia-induced expression in vehicle-treated but not in 32-134D–treated cells”.

These data come from publication PMC9057582, “HIF inhibitor 32-134D eradicates murine hepatocellular carcinoma in combination with anti-PD1 therapy” (The Journal of Clinical Investigation, 2022).
